Experimental data taken from PMC13245809 (Nature chemistry, 2026).

Experiments:
FABLE [1] = experiment: fluorescence titration, single-site binding model; set-up: species or system synthetic construct
FABLE [2] = experiment: fluorescence titration, global single-site fit; format: binding, synthetic construct

SMILES	Kd (FABLE [1])	Kd (FABLE [2])
CCN(CC)c1ccc2c(C(F)(F)F)cc(=O)oc2c1 [Cou481]	5.8 ± 0.7 µM	–
CN(C)c1ccc2c(C(F)(F)F)cc(=O)oc2c1 [Cou485, 7-(dimethylamino)-4-(trifluoromethyl)coumarin]	–	27.8 ± 1 µM
O=c1cc(C(F)(F)F)c2cc3c4c(c2o1)CCCN4CCC3 [Cou540a]	2 ± 0.1 µM	–
